# Patent US20020115059A1, “Drug screening system” (priority 2000, published 2002)
# System: mouse ES cells
# Experiment: In vitro hepatic differentiation of ES cells (EBs): marker mRNA expression by RT-PCR / real-time PCR
# Type: cell-based
# Settings: EBs on collagen coated dishes, factors of individual stages, Day 18
# Description: Cell Culture—The ES cell lines R1 (129Sv strain), W9.5 (129Sv), and SEK1 null (established from W9.5) (Ganiatsas et al., (1998) Proc. Natl. Acad. Sci. USA 95, 6881-6) were maintained undifferentiated in gelatin-coated dishes in DMEM (GIBCO BRL, Grand Island, N.Y.) containing 15% fetal bovine serum (Atlanta biologicals, Norcross, Ga.), 2 mM L-glutamine, 100 units/ml penicilin, 100 μg/ml streptomycin, 25 mM Hepes (GIBCO BRL), 300 μM monothioglycerol (Sigma, St. Louis, Mo.), and 250 unit/ml recombinant mouse LIF (ESGRO, CHEMICON, Temecula, Calif.). To induce differentiation, ES cells were suspended in IMDM containing 2 mM L-glutamine, 100 units/ml penicillin, 100 μg/ml streptomycin (GIBCO BRL), 20% fetal bovine serum (Atlanta biologicals) and 300 μM monothioglycerol (Sigma). Cells were cultured for 2 days by the hanging-drop method (1×10^3 ES cells per 30 μl in each drop) (Metzger et al., (1994) J. Cell. Biol. 126, 701-11). EBs in hanging drops were transferred to suspension culture in 100-mm petri dishes and cultured for an additional 3 days. […]
# For each gene, the DNA primers were originated from different exons to ensure that the PCR product represented the specific mRNA species and not genomic DNA. Relative quantitation of albumin gene was performed by ABIPRISM5700 sequence detection system and SYBR green PCR master mix (PE Biosystems, Foster City, Calif.). […]
substance,measurement,value
hepatocyte growth factor [HGF],G6P expression (FIG. 5a),critical
